Counter-ions that a name gives are not always drawn.
Legend:
[1] = biological target: T1, Recombinant CXCR4 receptor (Homo sapiens, UniProt P61073); experiment: G.Validation fluorescence assay of CXCR4 receptor conformational changes in lipidic micelles SB2L4 and SB3L1; format: biochemical; details: SB2L4 and SB3L1, 40 min
T1 construct: host or cells: HEK-293 T cells
Description: G.Validation® assay is […] biotech proprietary fluorescence based assay that assesses conformational changes of a receptor upon activation/inactivation. Recombinant CXCR4 receptor is produced and purified from HEK-293 T cells using […] proprietary mixes. Receptor is then reconstituted in detergent buffers containing lipids mimicking the lipidic composition of dendritic cells (DC) and macrophages (SB2L4 and SB3L1). Thereafter, the receptor is labelled with a non-modifying probe allowing the detection of the activation state and conformational change of the receptor upon addition of a ligand. Indeed, the probe emission spectra maximum wavelength (Amax) shifts according to activation/inactivation of the receptor. Thus, kinetic of activation/inactivation of the receptor can be followed by monitoring Amax shift after addition of a ligand over time. Emission spectra were registered for 40 minutes after addition of each ligand. […] Activation/inactivation kinetics were also followed using an exemplary compound of formula (I), i.e.

[2] = tested on: irrelevant G-protein coupled receptor (GPCR); experiment: G.Validation fluorescence assay on irrelevant GPCR control; format: biochemical; details: SDF1α 15 μM, AMD3100 100 μM, Example 60 150 μM; SB3L1
Male C57BL/6 Rj mice = experiment: In vivo evaluation of CXCR4 antagonistic activity by mobilisation of blood cells; design: species or system mouse; details: 20 mg/kg single i.p., 2:30 h after injection; shown also for neutrophils, monocytes, lymphocytes, eosinophils
Method: Male C57BL/6 Rj mice (7 weeks old) were obtained from Janvier (Le Genest-Saint-Isle, France). Mice were treated by a single intraperitoneal (i.p.) administration at timepoint 0 h. The experimental groups (n=10) were defined as follows: • Mice of group 1 were treated with vehicle only (0.9% NaCl aqueous solution) • Mice of group 2 were treated with AMD3100 (CXCR4 antagonist, Sigma-Aldrich, St Louis, USA) at 20 mg/kg (volume of 10 mL/kg) in 0.9% NaCl aqueous solution • Mice of group 3 were treated with an exemplary compound of formula (I), i.e. Example 60, at 30 mg/kg (volume of 10 mL/kg) in 0.9% NaCl aqueous solution
After 2:30 h, whole blood (at least 200 μl, max 1 mL) was collected in EDTA tubes before sacrifice by an intracardiac puncture under isoflurane anaesthesia and haematology parameters were determined the same day by laser flow cytometry, optical fluorescence and Laminar Flow Impedance™ using the ProCyte Dx hematology analyser (IDEXX, Eau Claire, USA). Differential leukocyte counts were performed to quantify specific immune cell types. Data are reported as total number of cells (K/μL), mean±S.E.M., as well as the statistical significance versus the vehicle control group using unpaired t-tests.

[3] = biological target: T2, human CXCR4 (hCXCR4) receptor (Homo sapiens, UniProt P61073); experiment: BRET assay of antagonist activity on the CXCR4-CXCL12 signaling pathway (Gαi2 recruitment) in HEK-293 T cells; format: cell-based; details: HEK-293 T cells with hCXCR4, Gαi2 and BRET biosensors; 10 min with compound, then EC80 CXCL12
T2 construct: expressed in transfected cells; host or cells: HEK-293 T cells, transient co-transfection with polyethylenimine
Method: Examples of the present invention were tested for their antagonist activity on human CXCR4 (hCXCR4) receptor transiently over-expressed in HEK-293 T cells. Compounds exert antagonist activity if they decrease the action of CXCL12 on the receptor.
The specific effector (luciferase tagged: BRET donor) recruited at the membrane will be in close proximity to a plasma membrane anchor (GFP tagged: BRET acceptor) to induce a BRET signal (Hamdan et a1, 2006, Chapter 5, Current Protocols in Neuroscience).
HEK-293 T cells are maintained in Dulbecco's Modified Eagle's Medium supplemented with 10% Foetal Calf Serum, 1% Penicillin/Streptomycin at 37° C./5% CO2. Cells are co-transfected using polyethylenimine (25 kDa linear) with several DNA plasmids encoding: hCXCR4; Gai2; an intracellular effector fused to luciferase (BRET donor); a plasma membrane effector fused to GFP (BRET acceptor). After transfection, cells are cultured for 48 h at 37° C./5% CO2. On the day of the assay, cells are detached using trypsin 0.05%, resuspended in assay buffer (1.8 mM CaCl2, 1 mM MgCl2, 2.7 mM KCl, 137 mM NaCl, 0.4 mM NaH2PO4, 5.5 mM D-Glucose, 11.9 mM NaHCO3, 25 mM Hepes) and seeded in 384 well plate at a density of 20,000 cells per well. Then, plates are equilibrated 3.5 h at 37° C. before adding compounds. Compounds and luciferase substrate are added to the cells using an automated device (Freedom Evo®, Tecan) and BRET readings are collected on EnVision (PerkinElmer) with specific filters (410 nm BW 80 nm, 515 nm BW 30 nm).
Cells are first incubated for 10 minutes with the compound alone. Then, cells are stimulated by an EC80 CXCL12 concentration for additional 10 minutes and luminescence is recorded. EC80 CXCL12 concentration is the concentration giving 80% of the maximal CXCL12 response. Antagonist activity is evaluated in comparison to basal signals evoked by EC80 CXCL12 alone.
For IC50 determination, a dose-response test is performed using 20 concentrations (ranging over 6 logs) of each compound. Dose-response curves are fitted using the sigmoidal dose-response (variable slope) analysis in GraphPad Prism software (GraphPad Software) and IC50 of antagonist activity is calculated. Dose-response experiments are performed in duplicate, in two independent experiments.
HEK-293 T cells were transfected to allow measuring the recruitment of Gai2 proteins involved in intracellular signaling by human CXCR4 receptor (hCXCR4) via the BRET technology. Cells were then incubated with various concentrations of examples of the invention before stimulation with an EC80 concentration of CXCL12.

[4] = tested on: peripheral blood mononuclear cells (PBMCs) from healthy donors; experiment: IFN production by R848-activated PBMCs, quantified with twINNE luciferase reporter cell line; format: cell-based, human; details: Homo sapiens, PBMC; read-out: IC50 of anti-inflammatory activity (IFN production by activated PBMCs)
Summary of the method: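 Healthy-donor PBMCs (4.10^6/mL, RPMI/10% FBS) were pre-treated with compound, then stimulated with R848 at 5 μg/mL for 24 h. Supernatants were put on twINNE cells, which carry luciferase under five ISREs, for 24 h, and Bright-Glo luminescence was read. IC50 values came from variable-slope dose-response fits.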

[5] = tested on: monocytes from healthy donors; experiment: Intracellular TNFα, IL-6 and IL-1β production by R848-activated monocytes after CXCR4 siRNA knockdown or AMD3100 block (flow cytometry); format: cell-based, human
Description: The blood from healthy donors was obtained from “Etablissement Français du Sang” (convention #19/EFS/029), Paris, France.
Peripheral blood mononuclear cells (PBMCs) were isolated by density centrifugation from peripheral blood leukocyte separation medium, lymphoprep (Stemcell Technologies, Vancouver, Canada).
Monocytes used for in vitro experiments as described in part C/D were purified by positive selection with human CD14 microbeads (Miltenyi Biotec, Bergisch Gladbach, Germany) from PBMCs.
Monocytes were cultured in RPMI 1640 (Sigma-Aldrich, St Louis, USA) containing 10% heat-inactivated Fetal Bovine Serum (FBS, Sigma-Aldrich, St Louis, USA) at 37° C./5% CO2.
PBMCs and monocytes used herein were prepared as described in part A ‘Immune cells preparation’, above. Monocytes as prepared in part C ‘In vitro knockdown using siRNA or CXCR4 antagonist treatment’ and D ‘Quantification of TNFα, IL-6 and IL1β productions’ were incubated with one exemplary compound of formula (I), i.e. […] Monocytes were analysed by flow cytometry. For intracellular TNFα, IL-6 and IL-1p labelling as described in Part D ‘Quantification of TNFα, IL-6 and IL-1β productions’, Brefeldin A (BFA) was added to the cells 30 minutes after R848 stimulation.
Isolated monocytes were seeded at 10^5 cells/100 μL in 96-well plates and incubated at 37° C.
Monocytes were then treated with small interfering RNA (siRNA) which target the chemokine receptor CXCR4 mRNA (siCXCR4) (Smart Pool, Dharmacon, Lafayette, USA), or with control siRNAs (siCTL) and coupled to a transfection agent DOTAP (Roche Applied Science, Penzberg, Germany). The mix was gently mixed and incubated at room temperature for 15 minutes. After incubation, the mix was added to cells in culture at a final concentration of 160 nM. Finally, cells were incubated at 37° C. for 24 hours.
Alternatively, monocytes were treated after seeding with the CXCR4 antagonist AMD3100 (Sigma-Aldrich, USA) at 20 μM for 1 hour.
Monocytes as treated in part C, were washed in phosphate-buffered saline (PBS) and incubated with a viability marker (Zombie Aqua, Biolegend, San Diego, USA) for 30 minutes at room temperature. After washing, cells were resuspended in PBS containing 2% FBS and 2 mM ethylenediaminetetraacetic acid (EDTA) and labelled with anti-CD14 antibody (clone REA599, Miltenyi Biotech, Bergisch Gladbach, Germany), used at 1:100. For intracellular labelling of TNFα, IL-6 and IL-1β, the “Inside Stain” kit (Miltenyi Biotec, Bergisch Gladbach, Germany) was used according to the manufacturer's protocol. Cells were fixed for 20 minutes at room temperature with 250 μL of Inside Fix solution and then labelled in 100 μL of Inside Perm solution containing anti-TNFα antibody (clone cA2), anti-IL-6 antibody (clone REA1037) or anti-IL-1p antibody (clone REA1172) at 1/500 for 30 minutes at room temperature (all from Miltenyi Biotec, Bergisch Gladbach, Germany). Data acquisition was performed on the Canto II flow cytometer using Diva software (BD Biosciences, San Jose, USA). FlowJo software was used to analyse the data.

[6] = AMD3100 20 μM, Example 77 10, 50 and 500 nM, R848

T2 sequence (P61073 whole entry): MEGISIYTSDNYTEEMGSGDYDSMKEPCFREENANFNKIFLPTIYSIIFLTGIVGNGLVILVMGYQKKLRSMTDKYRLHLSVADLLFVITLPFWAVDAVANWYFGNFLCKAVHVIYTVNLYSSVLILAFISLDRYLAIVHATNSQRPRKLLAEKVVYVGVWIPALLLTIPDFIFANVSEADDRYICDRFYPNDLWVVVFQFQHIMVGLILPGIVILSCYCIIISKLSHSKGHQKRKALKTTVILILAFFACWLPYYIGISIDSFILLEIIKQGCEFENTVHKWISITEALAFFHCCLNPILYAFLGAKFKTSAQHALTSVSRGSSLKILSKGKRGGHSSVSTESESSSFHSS
T1 sequence (P61073 whole entry): as above

`c1cc(CN2CCCNCCNCCCNCC2)ccc1CN1CCCNCCNCCCNCC1` [AMD3100, plerixafor, reference compound] was tested, and the “CXCR4 structural activation/inactivation, Amax shift in fluorescence” value ([1]; ligand 100 μM added after Example 60 150 μM) was “did not reverse Example 60 effect”, the “CXCR4 structural activation/inactivation, Amax shift in fluorescence” value ([1]; ligand 100 μM added after SDF1α 15 μM) was “reversed SDF1α effect with a blue shift” and the “irrelevant GPCR activation state, Amax shift in fluorescence” value [2] was “Neither benchmark ligands SDF1α and AMD3100, nor Example 60 showed any effect”. The “numbers of white blood cells in the blood vs vehicle control” value (Male C57BL/6 Rj mice) was “significantly higher”.
For `Clc1ccc2c(c1)CN1C(CSC3=NCc4ccccc4N3)=CSC1=N2` [Example 19, 7-chloro-3-(((1,4-dihydroquinazolin-2-yl)thio)methyl)-5H-thiazolo[2,3-b]quinazoline dihydrochloride], the IC50 [3] was at least 15 µM and the IC50 [4] was at most 10 µM.
`c1ccc(CC2CN=C(SCCCc3ccncc3)N2)cc1` (centres unmarked) [Example 55, 4-(3-((5-benzyl-4,5-dihydro-1H-imidazol-2-yl)thio)propyl)pyridine dihydrochloride] gave an IC50 [3] of at least 15 µM and an IC50 [4] of 10 to 32 µM.
`C1=C(CSC2=NCc3ccccc3N2)N2CC(Cc3ccccc3)N=C2S1` (centres unmarked) [Example 65, 6-benzyl-3-(((3,4-dihydroquinazolin-2-yl)thio)methyl)-5,6-dihydroimidazo[2,1-b]thiazole dihydrochloride] was tested, and the IC50 [3] was at least 15 µM and the IC50 [4] was at most 10 µM.
With `c1ccc2c(c1)CN=C(SCCN1CCCC1)N2` [Example 77, 2-((2-(pyrrolidin-1-yl)ethyl)thio)-1,4-dihydroquinazoline dihydrochloride] the “IL-1β production by activated monocytes in the presence of Example 77 with CXCR4 blocked by AMD3100” value [5, 6] was “restored”, the “TNFα production by activated monocytes in the presence of Example 77 with CXCR4 blocked by AMD3100” value [5, 6] was “restored” and the “IL-1β production by activated monocytes in the presence of Example 77 after CXCR4 siRNA” value ([5]; siCXCR4 vs siCTL, Example 77 50 nM, R848 1 μg/mL, % IL-1β positive cells) was “restored”. For the same compound, the “IL-6 production by activated monocytes in the presence of Example 77 after CXCR4 siRNA” value ([5]; siCXCR4 vs siCTL, Example 77 50 nM, R848 1 μg/mL, % IL-6 positive cells) was “restored”, the “TNFα production by activated monocytes in the presence of Example 77 after CXCR4 siRNA” value ([5]; siCXCR4 vs siCTL, Example 77 50 nM, R848 1 μg/mL, % TNFα positive cells) was “restored” and the IC50 [3] was at least 15 µM. The IC50 [4] was at most 10 µM.
